System: HIV (HTLV-III B strain)
Test: HIV replication inhibition assay (MTT, MT-4 cells)
Format: cell-based
Summary of the method: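 MT-4 cells (2.5×10^4/well) infected with HTLV-III B stock (60 pfu) in presence of compound, cultured four days at 37 °C. Viability by MTT reduction, formazan read at 560 and 690 nm. EC50 is concentration inhibiting virus-induced cytotoxicity by 50%.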

[1] = Human immunodeficiency virus 1, MT4, 96 h, Table A-7, four days
[2] = Human immunodeficiency virus 1, MT4, 96 h, Table A-8 (continuation of Tables A-1 to A-9), four days
[3] = Human immunodeficiency virus 1, MT4, 96 h, Table A-9, four days

EC50 [1] [µM] | EC50 [2] [µM] | SMILES | also measured
0.0081 |  | Cc1c(-c2ccc(Cl)cc2O)c([C@H](OC(C)(C)C)C(=O)O)c(C)c2c1-c1c(F)cccc1CN2S(C)(=O)=O [Compound 324] | 
0.0072 |  | Cc1c(-c2c(C)c3c(c(C)c2[C@H](OC(C)(C)C)C(=O)O)N(S(C)(=O)=O)Cc2cccc(F)c2-3)ccc(Cl)c1N [Compound 327] | 
0.024 |  | Cc1c(-c2ccc(F)cc2O)c([C@H](OC(C)(C)C)C(=O)O)c(C)c2c1-c1c(F)ccc(F)c1CN2S(C)(=O)=O [Compound 332] | 
0.022 |  | Cc1c(-c2ccc3c(c2)OCCO3)c([C@H](OC(C)(C)C)C(=O)O)c(C)c2c1-c1c(F)cccc1CN2S(C)(=O)=O [Compound 336] | 
0.026 |  | Cc1c(-c2c(C)c3c(c(C)c2[C@H](OC(C)(C)C)C(=O)O)N(S(C)(=O)=O)[C@@H](C)c2cccnc2-3)ccc2c1NCCO2 [Compound 337] | 
0.009 |  | CC(=O)N1Cc2cccc(F)c2-c2c(C)c(-c3ccc4c(c3C)NCCO4)c([C@H](OC(C)(C)C)C(=O)O)c(C)c21 [Compound 342] | 
0.047 |  | Cc1c(-c2c(C)c3c(c(C)c2[C@H](OC(C)(C)C)C(=O)O)N(C)Cc2cc(F)cc(F)c2-3)ccc2c1NCCO2 [Compound 344] | 
0.0068 |  | Cc1ccc2c(c1)-c1c(C)c(-c3ccc4c(c3C)NCCO4)c([C@H](OC(C)(C)C)C(=O)O)c(C)c1N(S(C)(=O)=O)C2 [Compound 345] | 
0.0048 |  | Cc1cccc2c1CN(S(C)(=O)=O)c1c(C)c([C@H](OC(C)(C)C)C(=O)O)c(-c3ccc4c(c3C)NCCO4)c(C)c1-2 [Compound 346] | 
0.022 |  | Cc1cccc2c1-c1c(C)c(-c3ccc4c(c3C)NCCO4)c([C@H](OC(C)(C)C)C(=O)O)c(C)c1N(S(C)(=O)=O)C2 [Compound 347] | 
0.002 |  | Cc1ccc2c(c1)CN(S(C)(=O)=O)c1c(C)c([C@H](OC(C)(C)C)C(=O)O)c(-c3ccc4c(c3C)NCCO4)c(C)c1-2 [Compound 348] | 
0.096 |  | Cc1c(-c2c(C)c3c(c(C)c2[C@H](OC(C)(C)C)C(=O)O)N(S(C)(=O)=O)Cc2cccc(F)c2-3)ccc2c1NC(=O)CO2 [Compound 350] | 
0.0045 |  | CCC(C)(C)O[C@H](C(=O)O)c1c(C)c2c(c(C)c1-c1ccc3c(c1C)NCCO3)-c1c(F)cccc1CN2S(C)(=O)=O [Compound 351] | 
0.091 |  | Cc1c(-c2c(C)c3c(c(C)c2[C@H](OC(C)(C)C)C(=O)O)N(C(N)=O)Cc2c(F)ccc(F)c2-3)ccc2c1NCCO2 [Compound 358] | 
0.0054 |  | Cc1c(-c2c(C)c3c(c(C)c2[C@H](OC(C)(C)C)C(=O)O)N(S(C)(=O)=O)Cc2cccc(F)c2-3)ccc2c1NCCC2 [Compound 359] | 
0.0044 |  | Cc1c(-c2c(C)c3c(c(C)c2[C@H](OC(C)(C)C)C(=O)O)N(S(C)(=O)=O)Cc2cccc(F)c2-3)ccc2c1OCCO2 [Compound 360] | 
 | 0.0076 | Cc1c(-c2c(C)c3c(c(C)c2[C@H](OC(C)(C)C)C(=O)O)N(S(C)(=O)=O)Cc2cccc(F)c2-3)ccc(Br)c1N [Compound 367] | 
 | 0.081 | Cc1c(-c2c(C)c3c(c(C)c2[C@H](OC(C)(C)C)C(=O)O)N(S(C)(=O)=O)Cc2cccc(F)c2-3)ccc(Cl)c1O [Compound 372] | 
 | 0.005 | Cc1ccc(-c2c(C)c3c(c(C)c2[C@H](OC(C)(C)C)C(=O)O)N(S(C)(=O)=O)Cc2cccc(F)c2-3)c(O)c1 [Compound 381] | 

The next lines start with the compound.

SMILES | EC50 [1] [µM] | EC50 [2] [µM] | also measured
Cc1c(-c2ccc(Cl)cc2)c([C@H](OC(C)(C)C)C(=O)O)c(C)c2c1-c1ncc(F)cc1CN2S(C)(=O)=O [Compound 325] |  |  | EC50 (Table A-7, four days): 0.011 µM
Cc1c(-c2ccccc2)c([C@H](OC(C)(C)C)C(=O)O)c(C)c2c1-c1ncc(F)cc1CN2S(C)(=O)=O [Compound 326] |  |  | EC50 (Table A-7, four days): 0.054 µM
COc1ccc(-c2c(C)c3c(c(C)c2[C@H](OC(C)(C)C)C(=O)O)N(S(C)(=O)=O)Cc2c(F)ccc(F)c2-3)c(C)n1 [Compound 329] | 0.039 |  | 
Cc1ccc(-c2c(C)c3c(c(C)c2[C@H](OC(C)(C)C)C(=O)O)N(S(C)(=O)=O)Cc2cc(N)ncc2-3)c(C)c1 [Compound 330] | 0.053 |  | 
Cc1ccc(-c2c(C)c3c(c(C)c2[C@H](OC(C)(C)C)C(=O)O)N(S(N)(=O)=O)Cc2c(F)ccc(F)c2-3)cc1 [Compound 333] | 0.019 |  | 
Cc1ccc(-c2c(C)c3c(c(C)c2[C@H](OC(C)(C)C)C(=O)O)N(S(C)(=O)=O)Cc2cccc(F)c2-3)s1 [Compound 334] | 0.022 |  | 
Cc1ccc(-c2c(C)c3c(c(C)c2[C@H](OC(C)(C)C)C(=O)O)N(C(N)=O)Cc2c(F)ccc(F)c2-3)cc1 [Compound 335] | 0.03 |  | 
Cc1c(-c2ccc3c(c2)NCCC3)c([C@H](OC(C)(C)C)C(=O)O)c(C)c2c1-c1c(F)cccc1CN2S(C)(=O)=O [Compound 340] | 0.0043 |  | 
Cc1cc(C)c(-c2c(C)c3c(c(C)c2[C@H](OC(C)(C)C)C(=O)O)N(S(C)(=O)=O)Cc2cccc(F)c2-3)s1 [Compound 343] | 0.016 |  | 
Cc1ccc(-c2c(C)c3c(c(C)c2[C@H](OC(C)(C)C)C(=O)O)N(S(C)(=O)=O)Cc2cccc(F)c2-3)cc1N [Compound 352] | 0.01 |  | 
Cc1c(-c2ccc3c(c2)NCC3)c([C@H](OC(C)(C)C)C(=O)O)c(C)c2c1-c1c(F)cccc1CN2S(C)(=O)=O [Compound 363] |  | 0.014 | 
Cc1c(-c2ccc(Cl)c3[nH]ccc23)c([C@H](OC(C)(C)C)C(=O)O)c(C)c2c1-c1c(F)cccc1CN2S(C)(=O)=O [Compound 364] |  | 0.016 | 
COc1cnc2c(c1)CN(S(C)(=O)=O)c1c(C)c([C@H](OC(C)(C)C)C(=O)O)c(-c3ccc(C)cc3)c(C)c1-2 [Compound 368] |  | 0.0039 | 
Cc1c(-c2ccc(Cl)cc2)c([C@H](OC(C)(C)C)C(=O)O)c(C)c2c1-c1ncccc1CN2S(C)(=O)=O [Compound 369] |  | 0.044 | 
COc1ccc2c(n1)CN(S(C)(=O)=O)c1c(C)c([C@H](OC(C)(C)C)C(=O)O)c(-c3ccc(C)cc3)c(C)c1-2 [Compound 371] |  | 0.0046 | 
COc1ccnc2c1CN(S(C)(=O)=O)c1c(C)c([C@H](OC(C)(C)C)C(=O)O)c(-c3ccc(C)cc3)c(C)c1-2 [Compound 374] |  | 0.063 | 
Cc1ccc(-c2c(C)c3c(c(C)c2[C@H](OC2(C)CCC2)C(=O)O)N(S(C)(=O)=O)Cc2cccc(F)c2-3)cc1 [Compound 375] |  | 0.019 | 
Cc1c(-c2ccc(Cl)cc2)c([C@H](OC2(C)CCC2)C(=O)O)c(C)c2c1-c1c(F)cccc1CN2S(C)(=O)=O [Compound 378] |  | 0.036 | 
COc1cc2c(cn1)-c1c(C)c(-c3ccc(Cl)cc3)c([C@H](OC(C)(C)C)C(=O)O)c(C)c1N(S(C)(=O)=O)C2 [Compound 379] |  | 0.0023 | 

SMILES | EC50 [1] [µM] | EC50 [2] [µM] | also measured
Cc1ccc2c(n1)CN(S(C)(=O)=O)c1c(C)c([C@H](OC(C)(C)C)C(=O)O)c(-c3ccc(Cl)cc3)c(C)c1-2 [Compound 380] |  | 0.013 | 
Cc1ccc(-c2c(C)c3c(c(C)c2[C@H](OC(C)(C)C)C(=O)O)N(S(C)(=O)=O)Cc2cc(C)cnc2-3)c(O)c1 [Compound 382] |  | 0.049 | 
Cc1ccc(-c2c(C)c3c(c(C)c2[C@H](OC(C)(C)C)C(=O)O)N(S(C)(=O)=O)Cc2cc(C)cnc2-3)c(C)c1 [Compound 384] |  | 0.0084 | 
Cc1ccc(-c2c(C)c3c(c(C)c2[C@H](OC(C)(C)C)C(=O)O)N(S(C)(=O)=O)Cc2cnc(C(F)(F)F)cc2-3)cc1 [Compound 385] |  | 0.039 | 
Cc1ccc(-c2c(C)c3c(c(C)c2[C@H](OC(C)(C)C)C(=O)O)N(S(C)(=O)=O)Cc2ccc(N)nc2-3)cc1 [Compound 386] |  | 0.086 | 
Cc1ccc(-c2c(C)c3c(c(C)c2[C@H](OC(C)(C)C)C(=O)O)N(S(C)(=O)=O)Cc2nc(C)cc(C)c2-3)cc1 [Compound 388] |  | 0.029 | 
COc1nc2c(cc1F)CN(S(C)(=O)=O)c1c(C)c([C@H](OC(C)(C)C)C(=O)O)c(-c3ccc(C)cc3)c(C)c1-2 [Compound 389] |  | 0.067 | 
Cc1ccc(-c2c(C)c3c(c(C)c2[C@H](OC(C)(C)C)C(=O)O)N(S(C)(=O)=O)Cc2cc(N(C)C)cnc2-3)cc1 [Compound 390] |  | 0.0022 | 
Cc1ccc(-c2c(C)c3c(c(C)c2[C@H](OC(C)(C)C)C(=O)O)N(S(C)(=O)=O)Cc2cc(C(F)(F)F)cnc2-3)cc1 [Compound 391] |  | 0.0041 | 
Cc1ccc(-c2c(C)c3c(c(C)c2[C@H](OC(C)(C)C)C(=O)O)N(S(C)(=O)=O)Cc2c(C)ccnc2-3)cc1 [Compound 392] |  | 0.031 | 
COc1cc2c(cn1)-c1c(C)c(-c3ccc(C)cc3C)c([C@H](OC(C)(C)C)C(=O)O)c(C)c1N(S(C)(=O)=O)C2 [Compound 393] |  | 0.0047 | 
Cc1ccc(-c2c(C)c3c(c(C)c2[C@H](OC(C)(C)C)C(=O)O)N(S(C)(=O)=O)Cc2cccc(F)c2-3)c(CO)c1 [Compound 394] |  | 0.027 | 
Cc1ccc(-c2c(C)c3c(c(C)c2[C@H](OC(C)(C)C)C(=O)O)N(S(C)(=O)=O)Cc2ccc4c(c2-3)OCCO4)cc1 [Compound 395] |  | 0.034 | 
Cc1ccc(-c2c(C)c3c(c(C)c2[C@H](OC(C)(C)C)C(=O)O)N(S(C)(=O)=O)Cc2ccc(C(F)(F)F)nc2-3)cc1 [Compound 397] |  | 0.033 | 
Cc1ccc(-c2c(C)c3c(c(C)c2[C@H](OC(C)(C)C)C(=O)O)N(S(C)(=O)=O)Cc2cc(F)c(N(C)C)nc2-3)cc1 [Compound 398] |  | 0.08 | 
Cc1ccc(-c2c(C)c3c(c(C)c2[C@H](OC(C)(C)C)C(=O)O)N(S(C)(=O)=O)Cc2c(F)ncc(F)c2-3)cc1 [Compound 403] |  |  | EC50 [3]: 0.0146 µM
Cc1cnc2c(c1)CN(S(C)(=O)=O)c1c(C)c([C@H](OC(C)(C)C)C(=O)O)c(C3=CCC(C)(C)CC3)c(C)c1-2 [Compound 404] |  |  | EC50 [3]: < 0.0078 µM
Cc1cnc2c(c1)CN(S(C)(=O)=O)c1c(C)c([C@H](OC(C)(C)C)C(=O)O)c(-c3ccc(Cl)cc3O)c(C)c1-2 [Compound 406] |  |  | EC50 [3]: 0.038 µM
Cc1ccc(-c2c(C)c3c(c(C)c2[C@H](OC(C)(C)C)C(=O)O)N(S(C)(=O)=O)Cc2cc(Cl)cnc2-3)cc1 [Compound 407] |  |  | EC50 [3]: < 0.0078 µM

Reference: patent US20180362543A1, “HIV REPLICATION INHIBITOR” (Shionogi & Co., Ltd., priority 2013, published 2018)
